We go through two compounds from paper PMC9238327, “RG100204, A Novel Aquaporin-9 Inhibitor, Reduces Septic Cardiomyopathy and Multiple Organ Failure in Murine Sepsis” (Frontiers in Immunology, 2022).

Assay [1] has as its target T1, Aquaporin 9 (AQP9) (Mus musculus, UniProt Q9JJJ3).
T1 sequence (Q9JJJ3 1-295): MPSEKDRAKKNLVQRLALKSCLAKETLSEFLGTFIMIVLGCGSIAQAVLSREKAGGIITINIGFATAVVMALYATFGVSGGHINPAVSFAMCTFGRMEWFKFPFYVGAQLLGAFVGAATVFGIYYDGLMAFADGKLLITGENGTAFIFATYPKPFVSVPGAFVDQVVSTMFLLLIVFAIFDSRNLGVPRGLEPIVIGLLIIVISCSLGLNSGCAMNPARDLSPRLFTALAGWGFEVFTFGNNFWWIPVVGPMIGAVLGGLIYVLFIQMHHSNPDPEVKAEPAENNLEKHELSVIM
Kind of assay: glycerol, water and H2O2 permeability in CHO cells expressing mouse AQP9 (calcein / HyPer-3 fluorescence). The assay is classed as cell-based.

Assay [2] concerns the target T1, Aquaporin 9 (AQP9). Kind of assay: water and glycerol permeability in CHO cells expressing mouse AQP9 (calcein fluorescence). Format: cell-based.

Consider `CCn1c(SCC(=O)Nc2nnc(-c3ccc(OC(C)C)cc3)s2)nnc1C(C)C` [RG, RG100204], for which the IC50 at Aquaporin 9 (AQP9) [1] is about 76 nM. With `O=C(CCc1ccc(O)cc1)c1c(O)cc(O)cc1O` [Phlor, phloretin], the IC50 at Aquaporin 9 (AQP9) [2] was about 720 nM.
